Non-standard residues stand in square brackets, D forms with d. Residues, ends and D or L forms follow the SMILES beside them. *: point of attachment. dPhe(4-Cl) = N[C@H](Cc1ccc(Cl)cc1)C(=O)O; d2Nal = N[C@H](Cc1ccc2ccccc2c1)C(=O)O; Nle = CCCC[C@H](N)C(=O)O; Ahp = NCCCCCCC(=O)O; Bn = c1ccc(C*)cc1
Legend:
MC1-R = MC1-R (Mus musculus, UniProt Q01727); assay: Competitive inhibition binding assay, 125I-NDP-alpha-MSH, B-16 mouse melanoma cell membranes; conditions: for percent inhibition of 125I-NDP-alpha-MSH binding, MC1-R (B-16): B-16 mouse melanoma cell membranes, 0.4 nM 125I-NDP-alpha-MSH, mean of triplicate, peptide concentration not given; for Ki: B-16 cells, read-out: Ki MC-1 B-16; for MC1-R (B-16) inhibition of 125I-NDP-alpha-MSH binding: peptide conc. 1 μM
hMC5-R = biological target: T1, hMC5-R (Homo sapiens, UniProt P33032); assay: Competitive inhibition binding assay, 125I-NDP-alpha-MSH, hMC5-R membranes; conditions: for percent inhibition of 125I-NDP-alpha-MSH binding, MC5-R: hMC5-R membranes, 0.4 nM 125I-NDP-alpha-MSH, mean of triplicate, peptide concentration not given; for Ki: membranes, read-out: Ki MC-5 Mem
T1 construct: expressed in transfected cells

MC4-R [1] = biological target: T2, MC4-R (Homo sapiens, UniProt P32245); assay: Competitive inhibition binding assay, 125I-NDP-alpha-MSH, hMC4-R membranes; set-up: expressed in transfected cells; conditions: for percent inhibition of 125I-NDP-alpha-MSH binding, MC4-R: hMC4-R membranes, 0.4 nM 125I-NDP-alpha-MSH, mean of triplicate, peptide concentration not given; for Ki: membranes, read-out: Ki MC-4 Mem
hMC3-R = biological target: T3, hMC3-R (Homo sapiens, UniProt P41968); assay: Competitive inhibition binding assay, 125I-NDP-alpha-MSH, hMC3-R membranes; conditions: for percent inhibition of 125I-NDP-alpha-MSH binding, MC3-R: hMC3-R membranes, 0.4 nM 125I-NDP-alpha-MSH, mean of triplicate, peptide concentration not given; for Ki: membranes, read-out: Ki MC-3 Mem
T3 construct: expressed in transfected cells

MC4-R [2] = biological target: T2, MC4-R; assay: Functional evaluation: intracellular cAMP accumulation in HEK-293 cells expressing MC4-R (agonist/antagonist status); type: cell-based; set-up: expressed in transfected cells; host or cells: HEK-293; conditions: with or without alpha-MSH, 1 hour at 37° C
Method: The Ki (nM) of certain peptides were determined, as was the agonist/antagonist status with respect to MC4-R. Functional evaluation of peptides at MC4-R was performed by measuring the accumulation of intracellular cAMP in HEK-293 cells expressing MC4-R. Antagonistic activity was determined by measuring the inhibition of α-MSH-induced cAMP levels following exposure to the compounds. Cells, suspended in Earle's Balanced Salt Solution containing 10 mM HEPES, pH 7.5, 5 mM MgCl2, 1 mM glutamine, 0.1% albumin and 0.6 mM 3-isobutyl-1-methyl-xanthine, a phosphodiesterase inhibitor, were plated in 96 well plates at a density of 0.5×10^5 cells per well. Cells were incubated with the test peptides in the presence or absence of α-MSH for 1 hour at 37° C. cAMP levels were measured by EIA (Amersham) in the cell lysates. Data analysis and EC50 values were determined using nonlinear regression analysis with Prism Graph-Pad software.

T2 sequence (P32245 whole entry): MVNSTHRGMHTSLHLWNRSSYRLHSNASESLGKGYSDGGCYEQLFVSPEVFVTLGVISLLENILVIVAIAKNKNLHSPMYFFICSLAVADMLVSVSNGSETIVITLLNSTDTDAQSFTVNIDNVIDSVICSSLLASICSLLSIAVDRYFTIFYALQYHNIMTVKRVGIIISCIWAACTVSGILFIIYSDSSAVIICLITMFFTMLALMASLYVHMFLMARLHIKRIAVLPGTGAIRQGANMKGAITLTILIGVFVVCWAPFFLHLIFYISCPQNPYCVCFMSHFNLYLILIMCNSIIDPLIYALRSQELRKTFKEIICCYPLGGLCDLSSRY
T3 sequence (P41968 whole entry): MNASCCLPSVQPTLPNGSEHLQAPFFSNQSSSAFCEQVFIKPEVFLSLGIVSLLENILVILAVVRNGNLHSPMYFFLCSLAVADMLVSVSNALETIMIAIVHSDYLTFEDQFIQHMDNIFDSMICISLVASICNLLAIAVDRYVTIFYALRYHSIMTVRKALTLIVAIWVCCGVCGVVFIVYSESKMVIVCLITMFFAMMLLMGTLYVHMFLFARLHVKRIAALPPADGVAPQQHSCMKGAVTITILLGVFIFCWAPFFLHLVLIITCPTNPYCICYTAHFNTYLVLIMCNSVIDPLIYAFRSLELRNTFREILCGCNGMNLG
T1 sequence (P33032 whole entry): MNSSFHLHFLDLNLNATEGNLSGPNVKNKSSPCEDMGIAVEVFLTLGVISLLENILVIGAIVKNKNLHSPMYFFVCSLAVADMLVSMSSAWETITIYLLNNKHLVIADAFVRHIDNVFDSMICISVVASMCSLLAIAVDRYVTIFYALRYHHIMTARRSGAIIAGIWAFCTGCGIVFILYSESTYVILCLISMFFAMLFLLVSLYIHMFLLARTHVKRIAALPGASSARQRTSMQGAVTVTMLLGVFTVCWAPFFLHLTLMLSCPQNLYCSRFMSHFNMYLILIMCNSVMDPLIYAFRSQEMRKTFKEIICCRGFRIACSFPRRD
Chain of MC1-R (Q01727 whole entry): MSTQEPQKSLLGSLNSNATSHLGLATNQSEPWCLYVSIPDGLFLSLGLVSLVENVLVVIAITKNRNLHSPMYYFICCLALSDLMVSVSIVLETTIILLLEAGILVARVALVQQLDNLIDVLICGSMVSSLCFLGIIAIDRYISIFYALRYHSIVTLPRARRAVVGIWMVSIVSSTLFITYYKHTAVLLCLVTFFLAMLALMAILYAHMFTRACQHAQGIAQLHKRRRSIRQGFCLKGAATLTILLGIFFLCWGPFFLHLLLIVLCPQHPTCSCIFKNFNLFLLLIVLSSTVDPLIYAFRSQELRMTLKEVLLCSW

Molecule | percent inhibition of 125I-NDP-alpha-MSH binding, MC1-R (B-16) (MC1-R) | percent inhibition of 125I-NDP-alpha-MSH binding, MC5-R (hMC5-R) | percent inhibition of 125I-NDP-alpha-MSH binding, MC4-R (MC4-R [1]) | percent inhibition of 125I-NDP-alpha-MSH binding, MC3-R (hMC3-R) | other results
2′-naphthylacetyl-Ala-D-Phe(4-Cl)-Arg-Trp-NH2 | 45% | – | – | – | –
2′-naphthylacetyl-D-Phe(4-Cl)-Arg-Trp-NH2 | – | 58% | – | – | –
2′-naphthylacetyl-Inp-D-Phe(4-Cl)-Arg-Trp-NH2 | – | – | 58% | – | –
3′,4′-Cl2phenylacetyl-Ala-D-Phe(4-Cl)-Arg-2′-(4″-methylphenyl)ethylamide | – | -6% | – | – | –
3′,4′-Cl2phenylacetyl-Ala-D-Phe(4-Cl)-Lys-Trp-NH2 | 45% | – | – | – | –
3′-CF3phenyl-acetyl-Ala-D-Phe(4-Cl)-Arg-Trp-NH2 | – | – | – | 101% | –
4′-biphenyl-acetyl-Ala-D-Phe(4-Cl)-Arg-Trp-NH2 | 0% | 37% | 88% | 54% | –
7′-amino-heptanoyl-Ala-D-Phe(4-Cl)-Arg-Trp-NH2 | 58% | – | – | – | –
7′-amino-heptanoyl-Ser(Bzl)-D-Phe(4-Cl)-Arg-2′-(4″-methylphenyl)ethylamide | – | – | – | 67% | –
7′-amino-heptanoyl-Ser(Bzl)-D-Phe(4-Cl)-Arg-4-phenyl-piperidine-4-carbonamide | 5% | 25% | 13% | 2% | –
7′-amino-heptanoyl-Ser(Bzl)-D-Phe(4-Cl)-Arg-Histamide | – | -2% | – | – | –
7′-amino-heptanoyl-Ser(Bzl)-D-Phe(4-Cl)-Arg-Trp-Asp-OH | – | – | 67% | – | –
7′-amino-heptanoyl-Ser(Bzl)-D-Phe(4-Cl)-Arg-Trp-OH | – | – | 67% | – | –
7′-amino-heptanoyl-Ser(Bzl)-D-Phe(4-Cl)-alpha-(N-amidino-4′-piperidine)Gly-Trp-NH2 | 3% | 16% | 26% | 8% | –
C[C@H](NC(=O)[C@H](Cc1c[nH]c2ccccc12)NC(=O)[C@H](CCCNC(=N)N)NC(=O)[C@@H](Cc1ccc(Cl)cc1)NC(=O)[C@H](COCc1ccccc1)NC(=O)CCCCCCN)C(N)=O [7′-amino-heptanoyl-Ser(Bzl)-D-Phe(4-Cl)-Arg-Trp-Ala-NH2] (H-[Ahp]S(Bn)[dPhe(4-Cl)]RWA-NH2) | – | 79% | 100% | 93% | HEK-293 (MC4-R) cells Classification (MC4-R [2]): Agonist; Ki (MC4-R [1]): 2 nM; Ki (MC1-R): 142 nM; Ki (hMC5-R): 112 nM; Ki (hMC3-R): 37 nM
N=C(N)NCCC[C@H](NC(=O)[C@@H](Cc1ccc(Cl)cc1)NC(=O)[C@H](COCc1ccccc1)NC(=O)CCCCCCN)C(=O)N[C@@H](Cc1c[nH]c2ccccc12)C(=O)N[C@@H](CC(=O)O)C(N)=O [7′-amino-heptanoyl-Ser(Bzl)-D-Phe(4-Cl)-Arg-Trp-Asp-NH2] (H-[Ahp]S(Bn)[dPhe(4-Cl)]RWD-NH2) | – | 48% | 98% | 73% | HEK-293 (MC4-R) cells Classification (MC4-R [2]): Agonist; Ki (MC4-R [1]): 9 nM; Ki (MC1-R): 760 nM; Ki (hMC5-R): 596 nM; Ki (hMC3-R): 191 nM
Ac-[Nle]AH[dF]RCW-NH2 | – | – | – | – | MC1-R (B-16) inhibition of 125I-NDP-alpha-MSH binding (MC1-R): 101%
Ac-[Nle]AH[dF]RW-NH2 | – | – | – | – | MC1-R (B-16) inhibition of 125I-NDP-alpha-MSH binding (MC1-R): 101%
Ac-[Nle]AH[dF]RWC-NH2 | – | – | – | – | MC3-R inhibition of 125I-NDP-alpha-MSH binding (hMC3-R; peptide conc. 1 μM): 58%

Now from value to molecule, other results behind:

percent inhibition of 125I-NDP-alpha-MSH binding, MC1-R (B-16) (MC1-R) | percent inhibition of 125I-NDP-alpha-MSH binding, MC5-R (hMC5-R) | percent inhibition of 125I-NDP-alpha-MSH binding, MC4-R (MC4-R [1]) | percent inhibition of 125I-NDP-alpha-MSH binding, MC3-R (hMC3-R) | Molecule | other results
67% | – | – | – | 2′-naphthylacetyl-Tle-D-Phe(4-Cl)-Arg-Trp-NH2 | –
– | – | – | 58% | 2′-naphthylacetyl-beta-Ala-D-Nal 2-Arg-Trp-NH2 | –
– | 67% | – | – | 3′-CF3phenylacetyl-Ala-D-Phe(4-Cl)-Lys-Trp-NH2 | –
– | – | 45% | – | 4′-phenylbutylaminocarbonyl-D-Phe(4-Cl)-Arg-Trp-NH2 | –
– | -6% | – | – | 7′-amino-heptanoyl-Ser(Bzl)-D-Phe(4-Cl)-Arg-2′,4′-dichlorobenzylamide | –
45% | – | – | – | 7′-amino-heptanoyl-Ser(Bzl)-D-Phe(4-Cl)-Arg-Tic-NH2 | –
-8% | 82% | 100% | 86% | N=C(N)NCCC[C@H](NC(=O)[C@@H](Cc1ccc2ccccc2c1)NC(=O)[C@H](COCc1ccccc1)NC(=O)CCCCCCN)C(=O)N[C@H](Cc1c[nH]c2ccccc12)C(N)=O [7′-amino-heptanoyl-Ser(Bzl)-D-Nal 2-Arg-D-Trp-NH2] (H-[Ahp]S(Bn)[d2Nal]R[dW]-NH2) | HEK-293 (MC4-R) cells Classification (MC4-R [2]): Antagonist; Ki (MC4-R [1]): 6 nM; Ki (MC1-R): 1300 nM; Ki (hMC5-R): 90 nM; Ki (hMC3-R): 70 nM
4% | 82% | 99% | 93% | N=C(N)NCCC[C@H](NC(=O)[C@@H](Cc1ccc2ccccc2c1)NC(=O)[C@H](COCc1ccccc1)NC(=O)CCCCCCN)C(=O)N[C@@H](Cc1c[nH]c2ccccc12)C(N)=O [7′-amino-heptanoyl-Ser(Bzl)-D-Nal 2-Arg-Trp-NH2] (H-[Ahp]S(Bn)[d2Nal]RW-NH2) | HEK-293 (MC4-R) cells Classification (MC4-R [2]): Antagonist; Ki (MC4-R [1]): 4 nM; Ki (MC1-R): 1870 nM; Ki (hMC5-R): 102 nM; Ki (hMC3-R): 50 nM
34% | 54% | 100% | 37% | N=C(N)NCCC[C@H](NC(=O)[C@@H](Cc1ccc(Cl)cc1)NC(=O)[C@H](COCc1ccccc1)NC(=O)CCCCCCN)C(=O)N[C@@H](Cc1c[nH]c2ccccc12)C(=O)N[C@@H](CC(=O)O)C(=O)N[C@@H](Cc1ccccc1)C(N)=O [7′-amino-heptanoyl-Ser(Bzl)-D-Phe(4-Cl)-Arg-Trp-Asp-Phe-NH2] (H-[Ahp]S(Bn)[dPhe(4-Cl)]RWDF-NH2) | HEK-293 (MC4-R) cells Classification (MC4-R [2]): Agonist; Ki (MC4-R [1]): 12 nM; Ki (MC1-R): 269 nM; Ki (hMC5-R): 386 nM; Ki (hMC3-R): 318 nM
67% | – | – | – | Ph-(CH2)2NH-CO(CH2)2CO-D-Phe(4-Cl)-Arg-Trp-NH2 | –

— patent US7417027B2, “Linear and cyclic melanocortin receptor-specific peptides” (Palatin Technologies, Inc., priority 2001, dated 2008)
